Results from patent publication US20210121456A1, “USE OF METHYLNALTREXONE TO ATTENUATE TUMOR PROGRESSION” (Salix Pharmaceuticals, Inc., priority 2014, published 2021).

Test system: subjects with advanced medical illness and opioid-induced constipation
Test: Study 2: double-blind, randomized, placebo-controlled study of subcutaneous MNTX (fixed dose)
Assay type: in vivo, human
Method: A double-blind, randomized, placebo-controlled study of subcutaneous MNTX was conducted in subjects with advanced medical illness and a current history of opioid-induced constipation. To satisfy eligibility criteria for enrollment, subjects were required to be on stable doses of laxatives and opioid analgesics. In the context of the study, a stable dose of opioid analgesics was defined as no reduction in the dose of opioid analgesic of ≥50% for at least three days before the first dose of MNTX. A stable dose of laxatives was defined as having a standing laxative order (and not PRN, or as-needed) for at least three days before the first dose of MNTX. A diagnosis of constipation was provided if the subject had (a) fewer than 3 bowel movements during the previous week by history and no clinically notable laxation in the 24 hours before the first dose of MNTX, or (b) no clinical notable laxation in the 48 hours before the first dose of MNTX.
Eligible subjects were randomized to receive MNTX or placebo every other day during a 14-day, double-blind period. Subjects weighing 38 kg to <62 kg received 0.4 mL SC MNTX (8 mg) or equal volume of placebo. Subjects weighing ≥62 kg received 0.6 mL SC MNTX (12 mg) or equal volume of placebo. Injections were administered subcutaneously in either the shoulder area, buttocks, abdomen, thighs or extremities, and rescue-laxatives, enemas or manual disimpactions were not administered within 4 hours before or after each dose of test article.
The endpoint assessed was the proportion of subjects with rescue-free laxation response within 4 hours after at least two of the first four doses. Two hundred and twenty-nine (229) subjects were enrolled and evaluated, including 151 patients with advanced cancers and 78 patients with other advanced illness (e.g., cardiovascular, pulmonary or neurologic disorders). Of which 229 subjects which enrolled, 113 were randomized to the placebo group and 116 were randomized to the MNTX treatment group. Of the patients who completed the double-blind phase, 142 (placebo 69, MNTX 73) elected to proceed with a 10-week open label phase of subcutaneous MNTX at PRN dosing.

C[N@+]1(CC2CC2)CC[C@]23c4c5ccc(O)c4O[C@H]2C(=O)CC[C@@]3(O)[C@H]1C5.[Br-] [MNTX, (R)—N-(cyclopropylmethyl) noroxymorphone methobromide]
subjects with rescue-free laxation response within 4 hours after at least 2 of the first 4 doses (ITT population, first week, 8 or 12 mg SC QOD): 62.9%
number of rescue-free laxations within 24 hour post dosing per week (Week 1): 4.9
number of total laxations within 24 hour post dosing per week (Week 1): 4.9
number of rescue-free laxations within 24 hour post dosing per week (Week 2): 3.2
number of total laxations within 24 hour post dosing per week (Week 2): 3.2
improvement in the stool symptoms domain of the PAC-SYM (compared with the placebo group, p=0.0920): more pronounced
subjects who used enemas (double-blind period): 17%
subjects who used rescue laxatives (double-blind period): 27%
subjects who required manual disimpaction (double-blind period, either group): < 5%
opioid use (effect of MNTX administration): not affected
efficacy versus placebo for the primary and all secondary efficacy endpoints (fixed doses 8 mg or 12 mg SC QOD): statistically superior to placebo
median time to first rescue-free laxation after the first dose (in vivo): 0.8 h
subjects with rescue-free laxation within 4 hours after at least 4 of the maximum 7 doses (in vivo): 62.2%
subjects with rescue-free laxation within 4 hours of the first dose (in vivo): 69.8%
